Source: PMC9734138, “Structure of the AlgKX modification and secretion complex required for alginate production and biofilm attachment in Pseudomonas aeruginosa” (Nature Communications, 2022)

Key:
[1] = biological target: AlgKXPp (Pseudomonas putida, UniProt Q88NC7+Q88ND0); experiment: NanoESI-MS ligand titration of the AlgK-AlgX mixture, Ka,kxL fitted from the ligand-bound fraction of the complex with a coupled-equilibria model, 200 mM aqueous ammonium acetate pH 7, 25 °C by the table title (21 °C in the methods).; format: binding; settings: n = 3
Protocol: (§1) AlgXPp and AlgKPp stock solutions were buffer exchanged into 200 mM aqueous ammonium acetate (pH 7) using a 10 kDa cut-off Amicon 0.5 mL microconcentrators (EMD, Millipore, Billerica, MA). Stock solutions of oligosaccharides were prepared by dissolving a known amount of solid compound in Milli-Q water and stored at −20 °C until used. Nanoelectrospray (nanoESI) mass spectrometry measurements were performed on a Q Exactive Orbitrap (Orbitrap) mass spectrometer (Thermo Fisher Scientific, Bremen, Germany) and on a Q Exactive Ultra-High Mass Range Orbitrap mass spectrometer (Thermo Fisher Scientific, Bremen, Germany), both equipped with a nanoflow ESI source. NanoESI was performed by applying a voltage of ~0.8 kV to a platinum wire inserted into the nanoESI tip, which was produced from a borosilicate glass capillary (1.0 mm o.d., 0.78 mm i.d.) pulled to ~2 μm o.d. using a P − 1000 micropipette puller (Sutter Instruments, Novato, CA). The inlet capillary of the MS was heated to 120 °C, the S-lens RF level was set at 100, automatic gain control target was set at 1 × 10^6 with a maximum injection time of 200 ms. All MS data were acquired and processed using Thermo Xcalibur 4.1 software.
(§2) The Ka,kx for the interaction of AlgKPp and AlgXPp with the formation of AlgKXPp complex was obtained using the Slow Mixing Mode (SLOMO) ESI-MS assay. Briefly, ~2 µL of a solution of AlgXPp (5 µM) and AlgKPp (3–10 µM) was introduced into the nanoESI tip, followed by injection of 10 µL of solution of AlgXPp (5 µM) and AlgKPp (45 µM). The binding measurements were carried out at 21 °C; time-resolved mass spectra were averaged over 1 min intervals and the sum of the charge state-normalized abundances of the […] and AlgKXPp complex ions were calculated automatically using the SWARM software (https://github.com/pkitov/CUPRA-SWARM)[72]. The corrected (for response factors) abundances of AlgXPp and AlgKXPp species were used to calculate R/(R+1) values for AlgKPp (designated as L) and AlgXPp (designated as P) interaction and association constant Ka,kx was found using Eq. (1) (Ka,kx in this case designated as Ka in Eq. (1)).
(§3) 3b AlgXPpL⇌AlgXPp+L,Ka,xL=[AlgXPpL]/AlgXPp[L] 3c AlgKXPp⇌AlgKPp+AlgXPp,Ka,kx=[AlgKXPpL]/AlgKPp[AlgXPp] 3d AlgKXPpL⇌AlgKXPp+L,Ka,kxL=[AlgKXPL]/AlgKXPpLL
(§4) The corresponding mass balance equations are shown below:4a [L]0=[L]+[AlgKPpL]+[AlgXPpL]+[AlgKXPpL] 4b [AlgKPp]0=[AlgKPp]+[AlgKPpL]+[AlgKXPp]+[AlgKXPpL] 4c [AlgXPp]0=[AlgXPp]+[AlgXPpL]+[AlgKXPp]+[AlgKXPpL] where […], […], and [L]0 are initial concentrations of AlgKPp, AlgXPp, and oligosaccharide ligand L; Ka,kL, Ka,xL, and Ka,kx are association constant values determined as described above, and Ka,kxL is unknown parameter found by the fitting of the model to experimental data.

[2] = biological target: AlgKPp (Pseudomonas putida, UniProt Q88NC7); experiment: Direct nanoESI-MS binding assay of the single proteins with reference protein correction for nonspecific binding, 200 mM aqueous ammonium acetate pH 7, 25 °C by the table title (21 °C in the methods).; design: gene algK
Protocol: as §1
(§5) Association constants (Ka,kL and Ka,xL) for interactions of AlgKPp and AlgXPp with oligosaccharide ligands were obtained using the direct ESI-MS assay[68],[69]. The binding measurements were carried out at 21 °C, and the equilibrium mixtures were prepared by mixing aliquots of the stock solutions of proteins and ligands in aqueous ammonium acetate (200 mM). ESI-MS measurements were performed after a 1 h incubation time period. All mass spectra were corrected, when needed, for the occurrence of nonspecific carbohydrate-protein binding during the ESI process using the reference protein method. Ka,kL and Ka,xL values were determined from the abundance ratio (R) of the ligand-bound (PL) to free protein (P) ions (P can be AlgKPp or AlgXPp), after correction for nonspecific ligand binding, and the initial concentrations of protein ([P]0) and ligand ([L]0), Eq. (1):1 R/R+1=KaP0+KaL0+1−(1−KaL0+KaP0)^2+4KaL0/2KaP0 where R is taken to be equal to the corresponding equilibrium concentration ratio ([PL]/[P]) in solution, Eq. (2):2 R=∑Ab(PL)/∑Ab(P)=[PL]/[P] and Ka is Ka,kL or Ka,xL.

[3] = biological target: T1, AlgXPp (Pseudomonas putida, UniProt Q88ND0); experiment: as above; design: gene algX
Protocol: as §1, §5
Target sequence in this assay (Q88ND0 whole entry): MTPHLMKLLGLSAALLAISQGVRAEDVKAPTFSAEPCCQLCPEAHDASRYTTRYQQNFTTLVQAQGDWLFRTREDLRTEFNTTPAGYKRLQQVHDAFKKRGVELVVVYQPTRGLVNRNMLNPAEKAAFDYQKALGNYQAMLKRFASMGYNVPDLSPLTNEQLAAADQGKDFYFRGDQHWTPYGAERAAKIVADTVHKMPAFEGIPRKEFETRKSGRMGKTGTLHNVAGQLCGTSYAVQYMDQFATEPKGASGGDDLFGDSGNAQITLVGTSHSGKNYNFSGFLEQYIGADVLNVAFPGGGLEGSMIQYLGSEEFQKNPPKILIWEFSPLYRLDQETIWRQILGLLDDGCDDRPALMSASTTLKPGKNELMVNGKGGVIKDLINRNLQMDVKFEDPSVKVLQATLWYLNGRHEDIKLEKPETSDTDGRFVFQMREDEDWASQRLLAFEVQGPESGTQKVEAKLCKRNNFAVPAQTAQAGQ

[4] = biological target: T2, AlgKXPp complex (Pseudomonas putida, UniProt Q88NC7+Q88ND0); experiment: ESI-MS alginate binding assay, AlgKXPp complex (binding model fit); settings: AlgKPp and AlgXPp 5 µM each, ligand 100 µM, ammonium acetate 200 mM pH 7.0
T2 construct: Induced cells containing either pET26b P. putida AlgK^33–484 or pET24b P. putida AlgX^∆Nterm; His6 (C); made in house; host or cells: E. coli BL21 (DE3) CodonPlus (AlgK) and E. coli Lemo21 (DE3) (AlgX)
Protocol: as §1, §3, §4

[5] = biological target: T1, AlgXPp; experiment: Slow Mixing Mode (SLOMO) ESI-MS assay of AlgKPp-AlgXPp complex formation; format: binding; design: His6 (C); made in house; host or cells: E. coli Lemo21 (DE3); settings: for Fraction of bound AlgX: mean, n = 3
Protocol: as §1, §2

[6] = read-out: Ka (M^-1) (AlgKPp), Ka (M^-1) (AlgXPp)

Sequence of AlgKXPp (Q88ND0 whole entry, one chain of several): as the sequence (Q88ND0 whole entry) above

CCCO[C@@H]1O[C@H](C(=O)O)[C@@H](O[C@@H]2O[C@H](C(=O)O)[C@@H](O[C@@H]3O[C@H](C(=O)O)[C@@H](O[C@@H]4O[C@H](C(=O)O)[C@@H](O[C@@H]5O[C@H](C(=O)O)[C@@H](O[C@@H]6O[C@H](C(=O)O)[C@@H](O[C@@H]7O[C@H](C(=O)O)[C@@H](O)[C@H](O)[C@@H]7O)[C@H](O)[C@@H]6O)[C@H](O)[C@@H]5O)[C@H](O)[C@@H]4O)[C@H](O)[C@@H]3O)[C@H](O)[C@@H]2O)[C@H](O)[C@@H]1O [ManA7, heptamer of beta-D-mannuronic acid (1-4 linked, polyM heptasaccharide)]
Kd ([1]; read-out: Ka (M^-1) (AlgKXPp)): 1000 µM | Kd [2, 6]: 2380 µM | Kd [3, 6]: 3850 µM

alginate heptasaccharide of alternating alpha-L-guluronate (G) and beta-D-mannuronate (M) [GMGMGMG]
Ka (M^-1) (AlgKXPp) [1]: (18 ± 0.6) × 10^2 M-1 | Ka (M^-1) (AlgKPp); Ka (M^-1) (AlgXPp) [3]: (2.7 ± 0.3) × 10^2 M-1

alginate hexasaccharide of alpha-L-guluronate (G) and beta-D-mannuronate (M), sequence GMGGMG
Ka (M^-1) (AlgKXPp) [1]: (5.4 ± 0.5) × 10^2 M-1 | Ka (M^-1) (AlgKPp); Ka (M^-1) (AlgXPp) [2]: (3.0 ± 0.9) × 10^2 M-1 | Ka (M^-1) (AlgKPp); Ka (M^-1) (AlgXPp) [3]: (1.4 ± 0.3) × 10^2 M-1

alginate hexasaccharide of alternating alpha-L-guluronate (G) and beta-D-mannuronate (M) [GMGMGM]
Ka (M^-1) (AlgKXPp) [1]: (12 ± 0.7) × 10^2 M-1 | Ka (M^-1) (AlgKPp); Ka (M^-1) (AlgXPp) [2]: (2.5 ± 0.1) × 10^2 M-1 | Ka (M^-1) (AlgKPp); Ka (M^-1) (AlgXPp) [3]: (4.5 ± 1.0) × 10^2 M-1

pentadeca-hyaluronic acid [HA15, reference compound]
ligand binding to AlgKXPp detected by ESI-MS [4]: No ligand binding was detected | ligand binding to AlgKXPp detected by ESI-MS ([4]; listed as 15-mer of hyaluronic acid): no specific binding

B1: AlgKXPp: 1:1 complex of P. putida AlgK and AlgX (protein, UniProt Q88NC7 33-484; Q88ND0 25-479, looked up)
Alginate biosynthesis protein … 1: CAGLPDQRLANEALKRGDTALAERNYKALADLGYSEAQVGLADIKVATRDPSQIKEAEATYRAAAATSPRAQARLGRLLVAKPDSTQAEREEAETLLKQAAKQGQSNTLIPLAMLYLSYPQSFPKVNAQQQIDQWRAAGNPEAGLAQVLLYRTQGTYDQHLGEVEKICKAALNTTDICYVELATVYQKRGQADQQAALLGQLKSAYARGAVPATRVDSVARVLADRSLGQTDEKTAKELLEQVAPANPASWVSLAQLVYDFPELGDTDQLMAYIDKGREAEQPRAELLLGRLYYEGKTLPADAQKAEQHLQAAAEAGEISAHYYLGQLYRRGYLGNVEPQKAVDHLLAAARGGQNSADYALAQLFSEGHGIRPQPGNAWVFAQLSQANPTPQSAELLQQLDQQLTPDQRNQAQQLLDQEKRARGSLAQGANSTLALEALQDDEKEVDGEDSL
Alginate biosynthesis protein … 2: EDVKAPTFSAEPCCQLCPEAHDASRYTTRYQQNFTTLVQAQGDWLFRTREDLRTEFNTTPAGYKRLQQVHDAFKKRGVELVVVYQPTRGLVNRNMLNPAEKAAFDYQKALGNYQAMLKRFASMGYNVPDLSPLTNEQLAAADQGKDFYFRGDQHWTPYGAERAAKIVADTVHKMPAFEGIPRKEFETRKSGRMGKTGTLHNVAGQLCGTSYAVQYMDQFATEPKGASGGDDLFGDSGNAQITLVGTSHSGKNYNFSGFLEQYIGADVLNVAFPGGGLEGSMIQYLGSEEFQKNPPKILIWEFSPLYRLDQETIWRQILGLLDDGCDDRPALMSASTTLKPGKNELMVNGKGGVIKDLINRNLQMDVKFEDPSVKVLQATLWYLNGRHEDIKLEKPETSDTDGRFVFQMREDEDWASQRLLAFEVQGPESGTQKVEAKLCKRNNFAVPAQTAQAGQ
association constant (Ka) for 1:1 AlgKXPp complex formation ([5]; SLOMO ESI-MS, AlgXPp 5 µM, 21 °C): 8.9 ± 0.9 × 10^4 M^−1

B2: AlgK: P. putida KT2440 AlgK residues 33–484, His-tagged TPR-containing lipoprotein (protein)
chain: CAGLPDQRLAQEALERGDLATAQSNYQALAAMGYADAQVGLADMQVASGDSAQQAKAEKLYREAAQTSPRARARLGKWLAAKPGASDAEHREAERLLSQAFEQGEDSALVPLIVLYLQYPQSWPEIDPQQRIDQWRARGLPQADLAQIILYRTQGTYAQHLGEIEQVCQRWLRRMDVCWYELATVYQMQGNAEKQKVLLEQLRAAYKAGRVPGERVDSVAGVLADGELGQPDPQTAQALLEEIAPSYPAAWVSLAKLLYDYPDQGDLEKMLGYLKNAQDAAQPRAELLLGRLYYDGKWAPQDPRKAERHLLKAAASEPQANYYLGQIYRRGFLGKVYPQKAVDHLILAARAGQASADMALAQLWSQGRGIQPNRVNAYVFGQLAVQQQVPQASDLLGQIEAQLPPAERSQAQQLLKREQQSRGNNWQATVSLLQSQDSPINEEEPESL
Fraction of bound AlgX ([5]; concentration of AlgK 3 µM): 0.22 | Fraction of bound AlgX ([5]; concentration of AlgK 5 µM): 0.24 | Fraction of bound AlgX ([5]; concentration of AlgK 7.5 µM): 0.31 | Fraction of bound AlgX ([5]; concentration of AlgK 10 µM): 0.42
